Experimental data published in patent publication US12728136B2, “Liposomal nano formulation of combinational antibiotics and the uses thereof” (Purdue Research Foundation, priority 2018, dated 2026).

Experiments:
Assay type in all cases: cell-based, Pseudomonas aeruginosa
[1] = system: P. aeruginosa H131300444; test: Minimum inhibitory concentration, broth microdilution; conditions: clinical isolate P. aeruginosa H131300444
Experimental: (§1) Briefly, fresh cultures of each strain were diluted in Cation-Adjusted Mueller-Hinton Broth (CAMHB; Mg^2+ at 12.2 mg/L and Ca^2+ at 23.0 mg/L [Oxoid, Hampshire, England]) giving an approximately inoculum of 10^^6 colony-forming units (CFU/ml) as the inocula. Drug concentrations of 0, 0.125, 0.25, 0.5, 1, 2, and 4 mg/L were derived from diluting the stock drug solution (5.12 mg/mL) with CAMHB.

[2] = system: P. aeruginosa H133880624; test: as above; conditions: clinical isolate P. aeruginosa H133880624
Experimental: as §1

[3] = system: P. aeruginosa H131300444; test: In vitro static time-kill experiment; conditions: colistin 2 mg/L and/or ciprofloxacin 8 mg/L; 0-24 hrs; FIG. 13A
Experimental: (§2) All samples were dissolved in CAMHB and all experiments were performed with an initial inoculum of ~10^6 CFU/mL in 20 mL of CAMHB in 50 mL pyrogen-free and sterile polypropylene tubes. […] Serial samples (50 μL) were obtained at 0, 1, 3, 6 and 24 hrs for viable cell counting and determination of drug concentrations. All samples were centrifuged at 12000×g for 10 min and cell pellets were resuspended in 0.9% saline and diluted accordingly for viable counting on nutrient agar plates. The bacteria were incubated at 37° C. for 24 hrs and the limit of detection was 20 CFU/mL (equivalent to one colony per plate). The colonies were counted with a ProtoCOL colony counter (Synbiosis, Cambridge, United Kingdom).

[4] = system: P. aeruginosa H133880624; test: In vitro static time-kill experiment; conditions: colistin 2 mg/L and/or ciprofloxacin 8 mg/L; 0-24 hrs; FIG. 13B
Experimental: as §2

Colistin sulfate was tested, and the MIC [1] was 128 µg/mL, the MIC [2] was 128 µg/mL and the time-kill profile [3] was “no antibacterial effect”. For the same substance, the time-kill profile [4] was “no antibacterial effect”.
